Test results as given in the NIST ThermoML archive (doi:10.1016/j.jct.2007.10.010).
Numbers after ± are expanded uncertainties.

Tests used:
[1] = refractive index (Na D-line) (dimensionless); conditions: 298.15 K; 101.33 kPa; Liquid; Standard Abbe refractometry
[2] = 101 kPa, Liquid
[3] = xn = mol fraction of the nth substance listed; conditions: 101 kPa, Liquid

Cc1cc(C)cc(C)c1 [1,3,5-trimethylbenzene]
refractive index [1]: 1.4967 ± 0.0008
mass density ([2]; 298.15 K): 861.13 ± 0.49 kg/m3
mass density ([2]; 308.15 K): 852.89 ± 0.5 kg/m3
mass density ([2]; 318.15 K): 844.78 ± 0.51 kg/m3
mass density ([2]; 328.15 K): 836.65 ± 0.52 kg/m3

Cc1cc(C)cc(C)c1 [1,3,5-trimethylbenzene] + CCCCCCCC
mass density ([3]; 298.15 K, x2 = 0): 861.13 ± 0.49 kg/m3
mass density ([3]; 298.15 K, x2 = 0.08503): 845.14 ± 0.5 kg/m3
mass density ([3]; 298.15 K, x2 = 0.1479): 833.6 ± 0.5 kg/m3
mass density ([3]; 298.15 K, x2 = 0.2132): 821.88 ± 0.51 kg/m3
mass density ([3]; 298.15 K, x2 = 0.2717): 811.56 ± 0.52 kg/m3
mass density ([3]; 298.15 K, x2 = 0.3177): 803.61 ± 0.52 kg/m3
mass density ([3]; 298.15 K, x2 = 0.3864): 791.95 ± 0.53 kg/m3
mass density ([3]; 298.15 K, x2 = 0.463): 779.23 ± 0.54 kg/m3
mass density ([3]; 298.15 K, x2 = 0.5407): 766.69 ± 0.55 kg/m3
mass density ([3]; 298.15 K, x2 = 0.6037): 756.73 ± 0.56 kg/m3
mass density ([3]; 298.15 K, x2 = 0.6725): 746.08 ± 0.57 kg/m3
mass density ([3]; 298.15 K, x2 = 0.723): 738.44 ± 0.58 kg/m3
mass density ([3]; 298.15 K, x2 = 0.7969): 727.45 ± 0.59 kg/m3
mass density ([3]; 298.15 K, x2 = 0.8623): 717.95 ± 0.6 kg/m3
mass density ([3]; 298.15 K, x2 = 0.9422): 706.63 ± 0.61 kg/m3
mass density ([3]; 308.15 K, x2 = 0): 852.89 ± 0.5 kg/m3
mass density ([3]; 308.15 K, x2 = 0.08503): 836.88 ± 0.51 kg/m3
mass density ([3]; 308.15 K, x2 = 0.1386): 827.02 ± 0.51 kg/m3
mass density ([3]; 308.15 K, x2 = 0.2132): 813.6 ± 0.52 kg/m3
mass density ([3]; 308.15 K, x2 = 0.2717): 803.29 ± 0.53 kg/m3
mass density ([3]; 308.15 K, x2 = 0.3177): 795.34 ± 0.53 kg/m3
mass density ([3]; 308.15 K, x2 = 0.3864): 783.69 ± 0.54 kg/m3
mass density ([3]; 308.15 K, x2 = 0.463): 770.99 ± 0.55 kg/m3
mass density ([3]; 308.15 K, x2 = 0.5407): 758.45 ± 0.56 kg/m3
mass density ([3]; 308.15 K, x2 = 0.6037): 748.49 ± 0.57 kg/m3
mass density ([3]; 308.15 K, x2 = 0.6725): 737.87 ± 0.58 kg/m3
mass density ([3]; 308.15 K, x2 = 0.723): 730.2 ± 0.59 kg/m3
mass density ([3]; 308.15 K, x2 = 0.7969): 719.24 ± 0.6 kg/m3
mass density ([3]; 308.15 K, x2 = 0.8623): 709.74 ± 0.61 kg/m3
mass density ([3]; 308.15 K, x2 = 0.9422): 698.43 ± 0.62 kg/m3
mass density ([3]; 318.15 K, x2 = 0): 844.78 ± 0.51 kg/m3
mass density ([3]; 318.15 K, x2 = 0.06984): 831.58 ± 0.52 kg/m3
mass density ([3]; 318.15 K, x2 = 0.1363): 819.34 ± 0.52 kg/m3
mass density ([3]; 318.15 K, x2 = 0.2001): 807.84 ± 0.53 kg/m3
mass density ([3]; 318.15 K, x2 = 0.2695): 795.59 ± 0.54 kg/m3
mass density ([3]; 318.15 K, x2 = 0.3464): 782.35 ± 0.55 kg/m3
mass density ([3]; 318.15 K, x2 = 0.398): 773.67 ± 0.55 kg/m3
mass density ([3]; 318.15 K, x2 = 0.4464): 765.65 ± 0.56 kg/m3
mass density ([3]; 318.15 K, x2 = 0.536): 751.14 ± 0.57 kg/m3
mass density ([3]; 318.15 K, x2 = 0.5995): 741.12 ± 0.58 kg/m3
mass density ([3]; 318.15 K, x2 = 0.6643): 731.1 ± 0.59 kg/m3
mass density ([3]; 318.15 K, x2 = 0.7301): 721.16 ± 0.6 kg/m3
mass density ([3]; 318.15 K, x2 = 0.7839): 713.18 ± 0.61 kg/m3
mass density ([3]; 318.15 K, x2 = 0.8537): 703.03 ± 0.62 kg/m3
mass density ([3]; 318.15 K, x2 = 0.9507): 689.3 ± 0.64 kg/m3
mass density ([3]; 328.15 K, x2 = 0): 836.65 ± 0.52 kg/m3
mass density ([3]; 328.15 K, x2 = 0.06984): 823.48 ± 0.53 kg/m3
mass density ([3]; 328.15 K, x2 = 0.1363): 811.25 ± 0.53 kg/m3
mass density ([3]; 328.15 K, x2 = 0.2001): 799.75 ± 0.54 kg/m3
mass density ([3]; 328.15 K, x2 = 0.2677): 787.84 ± 0.55 kg/m3
mass density ([3]; 328.15 K, x2 = 0.3464): 774.3 ± 0.56 kg/m3
mass density ([3]; 328.15 K, x2 = 0.398): 765.62 ± 0.57 kg/m3
mass density ([3]; 328.15 K, x2 = 0.4622): 755.02 ± 0.57 kg/m3
mass density ([3]; 328.15 K, x2 = 0.5368): 743 ± 0.58 kg/m3
mass density ([3]; 328.15 K, x2 = 0.6022): 732.7 ± 0.59 kg/m3
mass density ([3]; 328.15 K, x2 = 0.6552): 724.51 ± 0.6 kg/m3
mass density ([3]; 328.15 K, x2 = 0.7389): 711.86 ± 0.61 kg/m3
mass density ([3]; 328.15 K, x2 = 0.7839): 705.21 ± 0.62 kg/m3
mass density ([3]; 328.15 K, x2 = 0.8537): 695.07 ± 0.63 kg/m3
mass density ([3]; 328.15 K, x2 = 0.9507): 681.35 ± 0.65 kg/m3

Cc1cccc(C)c1 [1,3-dimethylbenzene]
refractive index [1]: 1.4945 ± 0.0008
mass density ([2]; 298.15 K): 859.85 ± 0.49 kg/m3
mass density ([2]; 308.15 K): 851.2 ± 0.5 kg/m3
mass density ([2]; 318.15 K): 842.66 ± 0.51 kg/m3
mass density ([2]; 328.15 K): 834.13 ± 0.52 kg/m3

Cc1cccc(C)c1 [1,3-dimethylbenzene] + CCCCCCCC
mass density ([3]; 298.15 K, x2 = 0): 859.85 ± 0.49 kg/m3
mass density ([3]; 298.15 K, x2 = 0.06642): 845.86 ± 0.5 kg/m3
mass density ([3]; 298.15 K, x2 = 0.1397): 831.1 ± 0.51 kg/m3
mass density ([3]; 298.15 K, x2 = 0.2052): 818.49 ± 0.52 kg/m3
mass density ([3]; 298.15 K, x2 = 0.276): 805.42 ± 0.52 kg/m3
mass density ([3]; 298.15 K, x2 = 0.323): 797.05 ± 0.53 kg/m3
mass density ([3]; 298.15 K, x2 = 0.3982): 784.13 ± 0.54 kg/m3
mass density ([3]; 298.15 K, x2 = 0.4618): 773.65 ± 0.55 kg/m3
mass density ([3]; 298.15 K, x2 = 0.5432): 760.8 ± 0.56 kg/m3
mass density ([3]; 298.15 K, x2 = 0.5993): 752.28 ± 0.57 kg/m3
mass density ([3]; 298.15 K, x2 = 0.6755): 741.14 ± 0.58 kg/m3
mass density ([3]; 298.15 K, x2 = 0.7284): 733.68 ± 0.58 kg/m3
mass density ([3]; 298.15 K, x2 = 0.7851): 725.91 ± 0.59 kg/m3
mass density ([3]; 298.15 K, x2 = 0.8583): 716.27 ± 0.6 kg/m3
mass density ([3]; 298.15 K, x2 = 0.925): 707.79 ± 0.61 kg/m3
mass density ([3]; 308.15 K, x2 = 0): 851.2 ± 0.5 kg/m3
mass density ([3]; 308.15 K, x2 = 0.06642): 837.23 ± 0.51 kg/m3
mass density ([3]; 308.15 K, x2 = 0.1397): 822.5 ± 0.52 kg/m3
mass density ([3]; 308.15 K, x2 = 0.2052): 809.92 ± 0.53 kg/m3
mass density ([3]; 308.15 K, x2 = 0.276): 796.89 ± 0.54 kg/m3
mass density ([3]; 308.15 K, x2 = 0.323): 788.53 ± 0.54 kg/m3
mass density ([3]; 308.15 K, x2 = 0.3954): 776.12 ± 0.55 kg/m3
mass density ([3]; 308.15 K, x2 = 0.4618): 765.21 ± 0.56 kg/m3
mass density ([3]; 308.15 K, x2 = 0.5432): 752.4 ± 0.57 kg/m3
mass density ([3]; 308.15 K, x2 = 0.5993): 743.9 ± 0.58 kg/m3
mass density ([3]; 308.15 K, x2 = 0.6755): 732.79 ± 0.59 kg/m3
mass density ([3]; 308.15 K, x2 = 0.7284): 725.36 ± 0.6 kg/m3
mass density ([3]; 308.15 K, x2 = 0.7851): 717.64 ± 0.6 kg/m3
mass density ([3]; 308.15 K, x2 = 0.8583): 708.01 ± 0.61 kg/m3
mass density ([3]; 308.15 K, x2 = 0.925): 699.57 ± 0.62 kg/m3
mass density ([3]; 318.15 K, x2 = 0): 842.66 ± 0.51 kg/m3
mass density ([3]; 318.15 K, x2 = 0.0687): 828.23 ± 0.52 kg/m3
mass density ([3]; 318.15 K, x2 = 0.1168): 818.54 ± 0.53 kg/m3
mass density ([3]; 318.15 K, x2 = 0.207): 801.13 ± 0.54 kg/m3
mass density ([3]; 318.15 K, x2 = 0.2651): 790.45 ± 0.55 kg/m3
mass density ([3]; 318.15 K, x2 = 0.3289): 779.13 ± 0.55 kg/m3
mass density ([3]; 318.15 K, x2 = 0.4087): 765.6 ± 0.56 kg/m3
mass density ([3]; 318.15 K, x2 = 0.4672): 756.08 ± 0.57 kg/m3
mass density ([3]; 318.15 K, x2 = 0.5321): 745.88 ± 0.58 kg/m3
mass density ([3]; 318.15 K, x2 = 0.6067): 734.61 ± 0.59 kg/m3
mass density ([3]; 318.15 K, x2 = 0.6634): 726.39 ± 0.6 kg/m3
mass density ([3]; 318.15 K, x2 = 0.7288): 717.2 ± 0.61 kg/m3
mass density ([3]; 318.15 K, x2 = 0.7923): 708.59 ± 0.62 kg/m3
mass density ([3]; 318.15 K, x2 = 0.8634): 699.33 ± 0.63 kg/m3
mass density ([3]; 318.15 K, x2 = 0.9502): 688.48 ± 0.64 kg/m3
mass density ([3]; 328.15 K, x2 = 0): 834.13 ± 0.52 kg/m3
mass density ([3]; 328.15 K, x2 = 0.0687): 819.75 ± 0.53 kg/m3
mass density ([3]; 328.15 K, x2 = 0.1168): 810.1 ± 0.54 kg/m3
mass density ([3]; 328.15 K, x2 = 0.207): 792.73 ± 0.55 kg/m3
mass density ([3]; 328.15 K, x2 = 0.2651): 782.09 ± 0.56 kg/m3
mass density ([3]; 328.15 K, x2 = 0.3289): 770.81 ± 0.56 kg/m3
mass density ([3]; 328.15 K, x2 = 0.4087): 757.32 ± 0.58 kg/m3
mass density ([3]; 328.15 K, x2 = 0.4672): 747.81 ± 0.58 kg/m3
mass density ([3]; 328.15 K, x2 = 0.5287): 738.2 ± 0.59 kg/m3
mass density ([3]; 328.15 K, x2 = 0.6067): 726.45 ± 0.6 kg/m3
mass density ([3]; 328.15 K, x2 = 0.6634): 718.26 ± 0.61 kg/m3
mass density ([3]; 328.15 K, x2 = 0.7288): 709.11 ± 0.62 kg/m3
mass density ([3]; 328.15 K, x2 = 0.7923): 700.55 ± 0.63 kg/m3
mass density ([3]; 328.15 K, x2 = 0.8634): 691.33 ± 0.64 kg/m3
mass density ([3]; 328.15 K, x2 = 0.9502): 680.52 ± 0.65 kg/m3

c1ccccc1 [benzene]
refractive index [1]: 1.4979 ± 0.0007
mass density ([2]; 298.15 K): 873.62 ± 0.34 kg/m3
mass density ([2]; 308.15 K): 863.01 ± 0.35 kg/m3
mass density ([2]; 318.15 K): 852.16 ± 0.37 kg/m3
mass density ([2]; 328.15 K): 841.49 ± 0.39 kg/m3

c1ccccc1 [benzene] + CCCCCCCC
mass density ([3]; 298.15 K, x2 = 0): 873.62 ± 0.34 kg/m3
mass density ([3]; 308.15 K, x2 = 0): 863.01 ± 0.35 kg/m3
mass density ([3]; 318.15 K, x2 = 0): 852.16 ± 0.37 kg/m3
mass density ([3]; 328.15 K, x2 = 0): 841.49 ± 0.39 kg/m3
